Reference: patent publication US5945436A, “Pyridylmethyl nitriles, amides and thioamides useful as fungicides” (Uniroyal Chemical Company, Inc., priority 1997, dated 1999)

Legend:
Fusarium oxysporum = assay: Fungal growth inhibition, treated disc on agar (FUS OXY); type: cell-based; settings: disc dipped in 500 mg/l, 29° C.; for inhibition at 500 µg/mL: Fusarium oxysporum, read-out: Percent Growth Inhibition, FUS OXY
Erysiphe graminis = assay: Powdery mildew in barley, foliar application (ERY GRA); type: in vivo; settings: foliar, 1,000 mg/l, 8 days after inoculation; for pest or weed control at 1000 µg/mL: Blumeria graminis, foliar, 192 h, read-out: Percent Reduction of Disease, ERY GRA
Outline: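 'Robust' barley plants sprayed with acetone/TWEEN 20 aqueous emulsion at 1,000 mg/l, dried, then kept at 21° C in a greenhouse. Inoculated by distributing Erysiphe graminis spores from infected plants. Percent control computed from disease scores vs unsprayed control pots.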

[1] = system: Cercosporidium personatum; assay: Fungal germination and growth, treated disc on agar, scored (CER PER); type: cell-based; set-up: key: 100: Complete inhibition of germination and growth.; 80: Nearly complete inhibition but some growth.; 50: Partial inhibition of growth or, early complete inhibition but later growth begins.; 20: Some inhibition of growth, but not significant.; 0: No inhibition of growth; settings: disc dipped in 500 mg/l, 29° C., numerical score 0-100, spore suspension
Outline: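 Acetone test solutions dried on 11 mm filter paper discs, placed on agar; two drops of C. personatum spore suspension (20,000 spores/ml) applied per disc. Plates incubated at 29° C; germination and growth scored 0 (no inhibition) to 100 (complete inhibition), untreated discs as controls.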

Septoria nodorum = assay: Fungal growth inhibition, treated disc on agar (SEP NOD); type: cell-based; settings: disc dipped in 500 mg/l, 29° C.; for inhibition at 500 µg/mL: Parastagonospora nodorum, read-out: Percent Growth Inhibition, SEP NOD
Uromyces phaseoli = assay: Bean rust fungus eradicant test (URO PHA); type: in vivo; settings: pinto bean, eradicant spray 2 days after inoculation, 1,000 mg/l; for pest or weed control at 1000 µg/mL: Uromyces phaseoli, 216 h, read-out: Percent Reduction of Disease, URO PHA
Outline: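 Seven-day-old pinto bean plants (Phaseolus vulgaris, primary leaf) were inoculated with 20,000 spores/ml, held 24 h at 99% humidity and 21° C., then sprayed two days post-inoculation with acetone/TWEEN 20 emulsions at 1,000 mg/l. After nine days in a 21° C. greenhouse, disease was scored as percent reduction versus unsprayed controls.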

Erysiphe cichoracearum = assay: Powdery mildew of cucumber, systemic root uptake (CMS); type: in vivo; settings: 45 ml of 250 mg/l, 8 days after inoculation
Outline: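 Pot soil of barley (BMS) and cucumber (CMS) plants was drenched with 45 ml of a 250 mg/l acetone/Tween 20 aqueous emulsion, with untreated plants as controls. Disease was scored on a rating scale that included intermediate grades.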

Botrytis cinerea = assay: Fungal growth inhibition, treated disc on agar (BOT CIN); type: cell-based; settings: disc dipped in 500 mg/l, 29° C.; for inhibition at 500 µg/mL: Botrytis cinerea, read-out: Percent Growth Inhibition, BOT CIN

CC(C)=CCC(C#N)(CCc1ccc(F)cc1)c1cccnc1 (centres unmarked) [Compound 47]
inhibition at 500 µg/mL (Fusarium oxysporum): 50%
pest or weed control at 1000 µg/mL (Erysiphe graminis): 70%
CER PER inhibition score [1]: 0
inhibition at 500 µg/mL (Septoria nodorum): 100%
pest or weed control at 1000 µg/mL (Uromyces phaseoli): 33%
Percent Reduction of Disease, CMS (Erysiphe cichoracearum): 0%
inhibition at 500 µg/mL (Botrytis cinerea): 100%

COc1ccc(CCC(C#N)(CC=C(C)C)c2cccnc2)cc1 (centres unmarked) [Compound 48]
inhibition at 500 µg/mL (Fusarium oxysporum): 100%
pest or weed control at 1000 µg/mL (Erysiphe graminis): 67%
CER PER inhibition score [1]: 50
inhibition at 500 µg/mL (Septoria nodorum): 100%
pest or weed control at 1000 µg/mL (Uromyces phaseoli): 83%
Percent Reduction of Disease, CMS (Erysiphe cichoracearum): 0%
inhibition at 500 µg/mL (Botrytis cinerea): 100%

CC(C)CCC(C#N)(CCc1ccc(F)cc1)c1cccnc1 (centres unmarked) [Compound 49]
inhibition at 500 µg/mL (Fusarium oxysporum): 65%
pest or weed control at 1000 µg/mL (Erysiphe graminis): 100%
CER PER inhibition score [1]: 0
Percent Growth Inhibition, SEP NOD (Septoria nodorum): 100%
Percent Reduction of Disease, URO PHA (Uromyces phaseoli): 83%
Percent Reduction of Disease, CMS (Erysiphe cichoracearum): 0%
Percent Growth Inhibition, BOT CIN (Botrytis cinerea): 100%

COCC(C#N)(CCc1ccc(OC)cc1)c1cccnc1 (centres unmarked) [Compound 50]
inhibition at 500 µg/mL (Fusarium oxysporum): 100%
pest or weed control at 1000 µg/mL (Erysiphe graminis): 80%
CER PER inhibition score [1]: 0
inhibition at 500 µg/mL (Septoria nodorum): 100%
pest or weed control at 1000 µg/mL (Uromyces phaseoli): 90%
Percent Reduction of Disease, CMS (Erysiphe cichoracearum): 0%
inhibition at 500 µg/mL (Botrytis cinerea): 0%

COCC(C#N)(CCc1ccc(F)cc1)c1cccnc1 (centres unmarked) [Compound 51]
inhibition at 500 µg/mL (Fusarium oxysporum): 100%
pest or weed control at 1000 µg/mL (Erysiphe graminis): 91%
CER PER inhibition score [1]: 100
inhibition at 500 µg/mL (Septoria nodorum): 100%
pest or weed control at 1000 µg/mL (Uromyces phaseoli): 20%
Percent Reduction of Disease, CMS (Erysiphe cichoracearum): 0%
inhibition at 500 µg/mL (Botrytis cinerea): 100%

N#CC(CCc1ccc(F)cc1)(CC(F)(F)F)c1cccnc1 (centres unmarked) [Compound 52]
inhibition at 500 µg/mL (Fusarium oxysporum): 100%
pest or weed control at 1000 µg/mL (Erysiphe graminis): 100%
CER PER inhibition score [1]: 100
inhibition at 500 µg/mL (Septoria nodorum): 100%
pest or weed control at 1000 µg/mL (Uromyces phaseoli): 70%
Percent Reduction of Disease, CMS (Erysiphe cichoracearum): 85%
inhibition at 500 µg/mL (Botrytis cinerea): 100%

N#CC(CCF)(CCc1ccc(F)cc1)c1cccnc1 (centres unmarked) [Compound 53]
inhibition at 500 µg/mL (Fusarium oxysporum): 100%
pest or weed control at 1000 µg/mL (Erysiphe graminis): 100%
CER PER inhibition score [1]: 0
inhibition at 500 µg/mL (Septoria nodorum): 100%
pest or weed control at 1000 µg/mL (Uromyces phaseoli): 0%
Percent Reduction of Disease, CMS (Erysiphe cichoracearum): 0%
inhibition at 500 µg/mL (Botrytis cinerea): 100%

CCCCOc1ccc(CCC(C#N)(CCCC)c2cccnc2)cc1 (centres unmarked) [Compound 54]
inhibition at 500 µg/mL (Fusarium oxysporum): 100%
pest or weed control at 1000 µg/mL (Erysiphe graminis): 100%
CER PER inhibition score [1]: 0
inhibition at 500 µg/mL (Septoria nodorum): 100%
pest or weed control at 1000 µg/mL (Uromyces phaseoli): 35%
Percent Reduction of Disease, CMS (Erysiphe cichoracearum): 0%
inhibition at 500 µg/mL (Botrytis cinerea): 100%

CC(C)CCC(C#N)(CCc1ccc(F)cc1)c1cccnc1 (centres unmarked) [Compound 55]
Percent Growth Inhibition, FUS OXY (Fusarium oxysporum): 65%
Percent Reduction of Disease, ERY GRA (Erysiphe graminis): 100%
CER PER inhibition score [1]: 0
Percent Growth Inhibition, SEP NOD (Septoria nodorum): 10%
Percent Reduction of Disease, URO PHA (Uromyces phaseoli): 0%
Percent Reduction of Disease, CMS (Erysiphe cichoracearum): 0%
Percent Growth Inhibition, BOT CIN (Botrytis cinerea): 40%

C=CCC(C#N)(CCc1ccc(OCCCC)cc1)c1cccnc1 (centres unmarked) [Compound 56]
inhibition at 500 µg/mL (Fusarium oxysporum): 60%
pest or weed control at 1000 µg/mL (Erysiphe graminis): 90%
CER PER inhibition score [1]: 0
inhibition at 500 µg/mL (Septoria nodorum): 40%
pest or weed control at 1000 µg/mL (Uromyces phaseoli): 0%
Percent Reduction of Disease, CMS (Erysiphe cichoracearum): 0%
inhibition at 500 µg/mL (Botrytis cinerea): 100%

CCCCOc1ccc(CCC(C#N)(CCC)c2cccnc2)cc1 (centres unmarked) [Compound 57]
inhibition at 500 µg/mL (Fusarium oxysporum): 55%
pest or weed control at 1000 µg/mL (Erysiphe graminis): 90%
CER PER inhibition score [1]: 0
inhibition at 500 µg/mL (Septoria nodorum): 40%
pest or weed control at 1000 µg/mL (Uromyces phaseoli): 0%
Percent Reduction of Disease, CMS (Erysiphe cichoracearum): 0%
inhibition at 500 µg/mL (Botrytis cinerea): 30%

CCCCOc1ccc(CCC(C#N)(CC(C)C)c2cccnc2)cc1 (centres unmarked) [Compound 58]
inhibition at 500 µg/mL (Fusarium oxysporum): 40%
pest or weed control at 1000 µg/mL (Erysiphe graminis): 90%
CER PER inhibition score [1]: 0
inhibition at 500 µg/mL (Septoria nodorum): 70%
pest or weed control at 1000 µg/mL (Uromyces phaseoli): 0%
Percent Reduction of Disease, CMS (Erysiphe cichoracearum): 0%
inhibition at 500 µg/mL (Botrytis cinerea): 10%

CC=CCC(C#N)(CCc1ccc(F)cc1)c1cccnc1 (centres unmarked) [Compound 59]
inhibition at 500 µg/mL (Fusarium oxysporum): 100%
pest or weed control at 1000 µg/mL (Erysiphe graminis): 100%
CER PER inhibition score [1]: 0
inhibition at 500 µg/mL (Septoria nodorum): 100%
pest or weed control at 1000 µg/mL (Uromyces phaseoli): 35%
Percent Reduction of Disease, CMS (Erysiphe cichoracearum): 0%
inhibition at 500 µg/mL (Botrytis cinerea): 100%

CCCCCC(C#N)(CCc1ccc(F)cc1)c1cccnc1 (centres unmarked) [Compound 60]
inhibition at 500 µg/mL (Fusarium oxysporum): 20%
pest or weed control at 1000 µg/mL (Erysiphe graminis): 100%
CER PER inhibition score [1]: 0
inhibition at 500 µg/mL (Septoria nodorum): 100%
pest or weed control at 1000 µg/mL (Uromyces phaseoli): 50%
Percent Reduction of Disease, CMS (Erysiphe cichoracearum): 0%
inhibition at 500 µg/mL (Botrytis cinerea): 100%

C#CCC(CCc1ccccc1)(C(N)=S)c1cccnc1 (stereo not drawn) [Compound 61, α-(2-phenylethyl)-α-(2-propynyl)-3-pyridinethanethioamide]
inhibition at 500 µg/mL (Fusarium oxysporum): 100%
pest or weed control at 1000 µg/mL (Erysiphe graminis): 100%
CER PER inhibition score [1]: 100
inhibition at 500 µg/mL (Septoria nodorum): 20%
pest or weed control at 1000 µg/mL (Uromyces phaseoli): 0%
Percent Reduction of Disease, CMS (Erysiphe cichoracearum): 40%
inhibition at 500 µg/mL (Botrytis cinerea): 100%

CCCCCC(CCc1ccc(F)cc1)(C(N)=O)c1cccnc1 (centres unmarked) [Compound 62]
inhibition at 500 µg/mL (Fusarium oxysporum): 10%
pest or weed control at 1000 µg/mL (Erysiphe graminis): 0%
CER PER inhibition score [1]: 0
inhibition at 500 µg/mL (Septoria nodorum): 0%
pest or weed control at 1000 µg/mL (Uromyces phaseoli): 35%
Percent Reduction of Disease, CMS (Erysiphe cichoracearum): 20%
inhibition at 500 µg/mL (Botrytis cinerea): 0%

CCCCC(C#N)(CCCc1ccccc1OC)c1cccnc1 (centres unmarked) [Compound 63]
inhibition at 500 µg/mL (Fusarium oxysporum): 20%
pest or weed control at 1000 µg/mL (Erysiphe graminis): 0%
CER PER inhibition score [1]: 0
inhibition at 500 µg/mL (Septoria nodorum): 100%
pest or weed control at 1000 µg/mL (Uromyces phaseoli): 0%
Percent Reduction of Disease, CMS (Erysiphe cichoracearum): 0%
inhibition at 500 µg/mL (Botrytis cinerea): 40%

N#CC(CCCF)(CCc1ccc(F)cc1)c1cccnc1 (centres unmarked) [Compound 64]
inhibition at 500 µg/mL (Fusarium oxysporum): 100%
pest or weed control at 1000 µg/mL (Erysiphe graminis): 0%
CER PER inhibition score [1]: 0
inhibition at 500 µg/mL (Septoria nodorum): 100%
pest or weed control at 1000 µg/mL (Uromyces phaseoli): 70%
Percent Reduction of Disease, CMS (Erysiphe cichoracearum): 0%
inhibition at 500 µg/mL (Botrytis cinerea): 100%

C=C(Cl)CC(C#N)(CCc1ccc(F)cc1)c1cccnc1 (centres unmarked) [Compound 65]
inhibition at 500 µg/mL (Fusarium oxysporum): 100%
pest or weed control at 1000 µg/mL (Erysiphe graminis): 85%
CER PER inhibition score [1]: 0
inhibition at 500 µg/mL (Septoria nodorum): 100%
pest or weed control at 1000 µg/mL (Uromyces phaseoli): 50%
Percent Reduction of Disease, CMS (Erysiphe cichoracearum): 0%
inhibition at 500 µg/mL (Botrytis cinerea): 100%

N#CC(CCCF)(CCc1ccccc1F)c1cccnc1 (centres unmarked) [Compound 66]
inhibition at 500 µg/mL (Fusarium oxysporum): 100%
pest or weed control at 1000 µg/mL (Erysiphe graminis): 50%
CER PER inhibition score [1]: 0
inhibition at 500 µg/mL (Septoria nodorum): 100%
pest or weed control at 1000 µg/mL (Uromyces phaseoli): 70%
Percent Reduction of Disease, CMS (Erysiphe cichoracearum): 40%
inhibition at 500 µg/mL (Botrytis cinerea): 100%
